Data as given in ChEMBL document CHEMBL3864159, “Variation of the aryl substituent on the piperazine ring within the 4-(piperazin-1-yl)-2,6-di(pyrrolidin-1-yl)pyrimidine scaffold unveils potent, non-competitive inhibitors of the inflammatory caspases” (Bioorg Med Chem Lett, 2016).
Active and inactive are the calls of the source. The rule behind the calls is not given here.

Columns and labels:
[1] = species: Homo sapiens; experiment: Selectivity ratio of Ki for human recombinant N-terminal His-tagged DTT-activated caspase-4 expressed in Escherichia coli to Ki for human recombinant DTT-activated caspase-5 expressed in Escherichia coli
[2] = species: Homo sapiens; experiment: Selectivity ratio of Ki for human recombinant N-terminal His-tagged DTT-activated caspase-1 expressed in Escherichia coli to Ki for human recombinant DTT-activated caspase-5 expressed in Escherichia coli
[3] = target: T1, Calpain-1 catalytic subunit (Homo sapiens) (UniProt P07384); experiment: Inhibition of full-length human calpain-1 at 5 uM preincubated for 10 mins followed by Suc-LLVY-AMC substrate addition by fluorescence assay relative to control
T1 sequence (whole entry): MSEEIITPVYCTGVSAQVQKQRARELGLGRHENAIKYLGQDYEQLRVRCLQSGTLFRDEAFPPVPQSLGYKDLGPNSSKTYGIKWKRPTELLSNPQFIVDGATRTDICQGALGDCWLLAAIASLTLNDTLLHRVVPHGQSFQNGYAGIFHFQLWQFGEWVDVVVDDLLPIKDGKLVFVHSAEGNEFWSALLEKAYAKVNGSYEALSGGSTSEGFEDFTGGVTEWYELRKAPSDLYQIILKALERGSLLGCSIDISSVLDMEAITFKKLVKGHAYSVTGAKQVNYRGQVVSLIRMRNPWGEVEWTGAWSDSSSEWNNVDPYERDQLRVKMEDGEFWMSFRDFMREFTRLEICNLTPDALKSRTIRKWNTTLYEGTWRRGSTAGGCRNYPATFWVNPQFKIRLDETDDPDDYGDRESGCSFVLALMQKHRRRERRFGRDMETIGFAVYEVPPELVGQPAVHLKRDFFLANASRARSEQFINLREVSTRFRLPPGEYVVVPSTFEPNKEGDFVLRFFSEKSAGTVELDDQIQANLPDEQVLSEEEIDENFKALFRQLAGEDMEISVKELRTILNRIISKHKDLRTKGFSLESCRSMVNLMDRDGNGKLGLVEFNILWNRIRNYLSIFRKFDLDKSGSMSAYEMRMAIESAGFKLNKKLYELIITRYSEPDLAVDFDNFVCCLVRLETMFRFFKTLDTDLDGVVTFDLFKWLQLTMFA

[4] = target: T2, Cathepsin K (Homo sapiens) (UniProt P43235); experiment: Inhibition of human recombinant cathepsin-K assessed as residual activity at 5 uM preincubated for 10 mins followed by Z-FR-AMC substrate addition by fluorescence assay relative to control
T2 sequence (whole entry): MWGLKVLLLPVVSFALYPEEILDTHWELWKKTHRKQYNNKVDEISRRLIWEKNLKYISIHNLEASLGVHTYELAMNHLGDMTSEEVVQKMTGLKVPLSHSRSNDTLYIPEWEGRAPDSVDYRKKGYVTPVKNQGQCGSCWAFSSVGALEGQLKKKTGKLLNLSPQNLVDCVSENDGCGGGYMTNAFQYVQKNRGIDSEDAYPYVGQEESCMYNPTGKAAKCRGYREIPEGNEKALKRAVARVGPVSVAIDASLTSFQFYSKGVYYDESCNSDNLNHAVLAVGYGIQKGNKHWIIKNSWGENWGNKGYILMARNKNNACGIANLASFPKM

[5] = target: Cathepsin B (Homo sapiens) (UniProt P07858); experiment: Inhibition of human recombinant cathepsin-B at 5 uM preincubated for 10 mins followed by Z-FR-AMC substrate addition by fluorescence assay
[6] = target: T3, Papain (Carica papaya) (UniProt P00784); experiment: Inhibition of papaya papain at 5 uM preincubated for 10 mins followed by Suc-LLVY-AMC substrate addition by fluorescence assay relative to control
T3 sequence (whole entry): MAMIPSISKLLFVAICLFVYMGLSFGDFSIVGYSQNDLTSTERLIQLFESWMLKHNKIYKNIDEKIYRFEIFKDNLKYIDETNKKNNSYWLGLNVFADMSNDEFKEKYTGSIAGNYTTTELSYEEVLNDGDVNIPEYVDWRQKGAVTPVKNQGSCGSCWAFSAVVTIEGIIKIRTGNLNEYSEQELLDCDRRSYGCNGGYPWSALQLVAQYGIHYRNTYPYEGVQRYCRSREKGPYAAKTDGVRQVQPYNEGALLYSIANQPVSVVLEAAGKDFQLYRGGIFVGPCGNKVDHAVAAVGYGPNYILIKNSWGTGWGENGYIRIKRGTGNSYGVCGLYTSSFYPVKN

[7] = target: T2, Cathepsin K (Homo sapiens); experiment: Inhibition of human recombinant cathepsin-K at 5 uM preincubated for 10 mins followed by Z-FR-AMC substrate addition by fluorescence assay
[8] = species: Homo sapiens; experiment: Selectivity ratio of Ki for human recombinant N-terminal His-tagged DTT-activated caspase-1 expressed in Escherichia coli to Ki for human recombinant N-terminal His-tagged DTT-activated caspase-4 expressed in Escherichia coli
[9] = species: Homo sapiens; experiment: Selectivity ratio of Ki for human recombinant DTT-activated caspase-5 expressed in Escherichia coli to Ki for human recombinant N-terminal His-tagged DTT-activated caspase-4 expressed in Escherichia coli
[10] = target: T4, Caspase-1 (Homo sapiens) (UniProt P29466); experiment: Non-competitive inhibition of human recombinant N-terminal His-tagged DTT-activated caspase-1 expressed in Escherichia coli using 5 to 50 uM Ac-WEHD-AMC as substrate preincubated for 30 mins followed by substrate addition by Michaelis-Menten plot analysis
T4 sequence (whole entry): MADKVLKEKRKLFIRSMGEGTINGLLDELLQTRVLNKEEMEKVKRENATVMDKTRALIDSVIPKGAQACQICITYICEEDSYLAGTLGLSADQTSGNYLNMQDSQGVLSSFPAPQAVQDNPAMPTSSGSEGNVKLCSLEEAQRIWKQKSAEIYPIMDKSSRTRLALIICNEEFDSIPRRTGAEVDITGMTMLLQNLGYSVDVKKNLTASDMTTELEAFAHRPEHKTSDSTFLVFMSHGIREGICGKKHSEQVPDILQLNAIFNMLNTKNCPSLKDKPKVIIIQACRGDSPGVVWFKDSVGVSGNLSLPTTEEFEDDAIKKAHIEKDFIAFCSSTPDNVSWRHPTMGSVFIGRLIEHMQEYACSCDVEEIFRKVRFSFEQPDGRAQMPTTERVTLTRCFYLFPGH

| Structure (SMILES) | Ratio Ki [1] | Ratio Ki [2] | inhibition [3] | Activity [4] | inhibition [5] | inhibition [6] | inhibition [7] | Ratio Ki [8] | Ratio Ki [9] | inhibition [10] |
| --- | --- | --- | --- | --- | --- | --- | --- | --- | --- | --- |
| COc1cccc(CN2CCN(c3cc(N4CCCC4)nc(N4CCCC4)n3)CC2)c1 | – | – | Active | 78% | Active | Active | – | – | – | – |
| c1ccc(CCN2CCN(c3cc(N4CCCC4)nc(N4CCCC4)n3)CC2)cc1 | – | – | Active | – | Active | Active | Active | 2 | 2 | Active |

Continued, values first:

| Ratio Ki [1] | Ratio Ki [2] | inhibition [3] | Activity [4] | inhibition [5] | inhibition [6] | inhibition [7] | Ratio Ki [8] | Ratio Ki [9] | inhibition [10] | Structure (SMILES) |
| --- | --- | --- | --- | --- | --- | --- | --- | --- | --- | --- |
| 10 | 10 | – | – | – | – | – | – | – | – | O=[N+]([O-])c1ccc(CN2CCN(c3cc(N4CCCC4)nc(N4CCCC4)n3)CC2)cc1 |
| 10 | 10 | Active | – | Active | Active | Active | – | – | – | c1cncc(CN2CCN(c3cc(N4CCCC4)nc(N4CCCC4)n3)CC2)c1 |
| 10 | 10 | – | – | – | – | – | – | – | – | c1cc(CN2CCN(c3cc(N4CCCC4)nc(N4CCCC4)n3)CC2)ccn1 |
